The source of these data is patent US8044204B2, “8-methoxy-9H-isothiazolo[5,4-b]quinoline-3,4-diones and related compounds as anti-infective agents” (Achillion Pharmaceuticals, Inc., priority 2005, dated 2011).

Converted amounts (≈) assume the structure as drawn. Where a name gives a salt, the structure may show the parent alone. Read-outs that look alike come from different tables or passages of the source.

In general, MIC refers to the smallest concentration in the dilution series that meets the test's criterion for growth inhibition. The term CC50 denotes the concentration that lowers cell viability or growth by half.

Format in all cases: cell-based
One series relates to MRSA strain ATCC 700699. Description: Minimum Inhibitory Concentration (MIC) assay, Methicillin Resistant S. Aureus. Particulars: Staphylococcus aureus. An excerpt: It has been unexpectedly discovered that substitution of compounds of Formula I and Formula II with a methoxy substituent at the R8 position increases the anti-microbial activity of the compound against Methicillin resistant Staphylococcus Aureus bacteria while at the same time decreasing the cellular toxicity of the compound. The simultaneous increase in compound activity and decrease in compound toxicity provides a greater therapeutic range for compounds of Formula I and Formula II in which R8 is methoxy; i.e. the range of doses of such compounds that will produce beneficial effects without harmful side effects is increased. […] Therapeutic range is determined using a standard assay of cytotoxicity such as the Alamar blue assay provided in Example 10.
The antimicrobial activity of the compounds of the invention may be evaluated by a number of methods, including the following visual minimum inhibitory concentration (MIC) assay. This assay determines the minimum concentration of compound required to inhibit growth of a bacterial strain.
Minimum Inhibitory Concentration (MIC) Assay
Whole-cell antibacterial activity is determined by broth microdilution using conditions recommended by the NCCLS (see National Committee for Clinical Laboratory Standards. 2001. Performance standards for antimicrobial susceptibility testing: 11th informational supplement. Vol. 21, no. 1, M100-S11. National Committee for Clinical Laboratory Standards, Wayne, Pa.). Test compounds are dissolved in DMSO and diluted 1:50 in Mueller-Hinton II broth (Becton-Dickinson) to produce a 256 μg/ml stock solution. In a 96-well microtiter plate, the compound solution is serially two-fold diluted in Mueller-Hinton II broth. After the compounds are diluted, a 50 μl aliquot of the test organism (˜1×10^6 cfu/mL) is added to each well of the microtiter plate. The final test concentrations ranges from 0.125-128 μg/mL. Inoculated plates are incubated in ambient air at 37° C. for 18 to 24 hours. The organisms selected for testing included laboratory strains S. aureus ATCC 29213 and E. coli ATCC 25922 (strains purchased from American Type Culture Collection, Manassas, Va.), S. aureus FQR700699, and Paeruginosa 27853. The minimum inhibitory concentration (MIC) is determined as the lowest concentration of compound that inhibited visible growth of the test organism.

A short description of series [1]: Cell viability staining with Alamar Blue (cytotoxicity CC50), Hep2. To be noted: human, R6 = F, Hep2 ATCC CCL-23, read-out: hep2 CC50. As for the experimental part: To determine whether the microcidal effect observed against S. aureus and E. coli is specific to bacterial cells, compounds are screened for cell viability effects on several human cell types.
Optimal cell density is first determined by plating cells in a 96-well plate standard sterile tissue culture plates in 100 μl media, 10% FBS at six cell densities from 500 cells/well to 15,000 cells/well. A cell free well containing only media is used as a control. Cells are incubated at 37° C. in a 5% CO2 incubator for 24 hours. 10% culture volume (10 ul) of Alamar Blue (Biosource, DAL1100, 100 mL) is then added. Cells are incubated at 37° C. in a 5% CO2 incubator and read in a Victor V plate reader, 544 nm excitation, 590 nm emission, at 3, 4, and 24 hours after the addition of Alamar Blue. The cell number vs. change in fluorescence is plotted to determine linearity of signal vs. cell number. The optimal density varies between 500-15,000 cells/well depending on the specific cell type. The optimal density is selected based on the highest number of cells that is still in the linear response range.
Determination of Compound Cytotoxicity
Cells are plated at optimal cell density in a standard sterile tissue culture 96 well plate, and incubated at 37° C. O/N in a 5% CO2 incubator. 12 to 48 hours post-plating media is removed. The cells are washed 1 or 2 times with 1×PBS and replaced with fresh media containing the test compound in 1% DMSO. 24 to 72 hours after addition of compound, the media is removed, and the cells washed 1 to 2 times with 1×PBS. Fresh media containing 1/10 volume of Alamar Blue is then added. Plates are incubated 4 hours at 37° C. in a 5% CO2 incubator and read in a Victor V plate reader, 544 nm excitation, 590 nm emission.
Compounds are diluted to 20 micromolar in 1% DMSO and media and screened in duplicate to obtain single concentration cytotoxicity data. Eight concentration points from 0.78 micromolar to 100 micromolar, run in duplicate, are used to determine cyclotoxicity CC50 values. Cells with 1% DMSO and media are used as a negative control, compounds having a known CC50 against a particular cell type are used as positive controls.
The change in fluorescence vs. concentration of test compound is plotted to determine the cytotoxicity of the compound.
Sample media conditions, optimal plating densities, and positive control compounds for two cell types screened are presented in Table III.
For orientation: Alamar Blue is a resazurin reagent that responds to reducing activity.

For the next series, the system named is S. aureus ATCC 29213. Description: Minimum Inhibitory Concentration (MIC) assay, S. aureus. Particulars: Staphylococcus aureus, ATCC29213; broth microdilution; read-out: MIC against S. Aureus. The procedure, abridged:
(§1)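 NCCLS broth microdilution in Mueller-Hinton II broth, two-fold dilutions giving final 0.125–128 μg/mL, inoculum ~1×10^6 cfu/mL. Incubated in ambient air at 37 °C for 18–24 h. MIC read as lowest concentration with no visible growth.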
In general terms: Broth dilution looks for growth in wells or tubes with falling amounts of substance.

A further series deals with E. coli ATCC 25922. Put plainly: Minimum Inhibitory Concentration (MIC) assay, E. coli. To be noted: Escherichia coli, ATCC25922; broth microdilution; read-out: MIC against E. coli. In short, it runs like this:
as §1

The mark [2] stands for this setting: Hep2 cells (ATCC CCL-23), R8 = Methoxy compounds.
[3] abbreviates: R6 = F, R8 = H compounds, MRSA ATCC 700699, read-out: MRSA MIC.
Setting [4] is: Hep2 cells (ATCC CCL-23), R8 = H compounds.
[5] abbreviates: R6 = F, R8 = Methoxy compounds, MRSA ATCC 700699, read-out: MRSA MIC.
Where [6] appears, read: broth microdilution, read-out: MIC against Methicillin Resistant S. Aureus.

As to `COc1c(N2CC3CCCNC3C2)c(F)cc2c(=O)c3c(=O)[nH]sc3n(C3CC3)c12` (stereo not drawn) [Compound 45, 9-cyclopropyl-6-fluoro-8-methoxy-7-(octahydro-pyrrolo[3,4-b]pyridin-6-yl)isothia-zolo[5,4-b]quinoline-3,4(2H,9H)-dione, hydrochloride], the MIC was 2 µg/mL in the series with MRSA strain ATCC 700699 (read-out: MRSA MIC), at most 1 µg/mL in the series on S. aureus ATCC 29213 and at most 1 µg/mL in the series with E. coli ATCC 25922. Also, the cytotoxic concentration (CC50) in series [1] (setting [2]) stood at 93 µM.

Take `NC[C@@H]1CCN(c2cc3c(cc2F)c(=O)c2c(=O)[nH]sc2n3C2CC2)C1` [Compound 64, (S)-7-(3-(aminomethyl)-pyrrolidin-1-yl)-9-cyclopropyl-6-fluoroiso-thiazolo[5,4-b]quinoline-3,4(2H,9H)-dione]: the results for the MIC with MRSA strain ATCC 700699 (setting [3]) and with S. aureus ATCC 29213 were 1 µg/mL (≈ 2.67 µM) and at most 1 µg/mL, respectively. Moreover, in series [1] (setting [4]), the CC50 amounted to 3.1 µM.

Take `COc1c(N2CCNCC2)c(F)cc2c(=O)c3c(=O)[nH]sc3n(C3CC3)c12` [Compound 38, 9-cyclopropyl-6-fluoro-8-methoxy-7-(piperazin-1-yl)isothia-zolo[5,4-b]quinoline-3,4(2H,9H)-dione]: the MIC in the series with MRSA strain ATCC 700699 (setting [5]) was 4.8 µg/mL (≈ 12.3 µM); in the series on S. aureus ATCC 29213, at most 1 µg/mL; in the series on E. coli ATCC 25922 it was at most 1 µg/mL. The CC50 in series [1] (R8 = Methoxy compounds) was found to be 27 µM.

For `O=c1[nH]sc2c1c(=O)c1cc(F)c(N3CC4CCCNC4C3)cc1n2C1CC1` (stereo not drawn) [Compound 46, 9-cyclopropyl-6-fluoro-7-(octahydro-pyrrolo[3,4-b]pyridin-6-yl)isothia-zolo[5,4-b]quinoline-3,4(2H,9H)-dione, hydrochloride], the results for the MIC in the series with MRSA strain ATCC 700699 (read-out: MRSA MIC), in the series on S. aureus ATCC 29213 and in the series with E. coli ATCC 25922 were 4 µg/mL, at most 1 µg/mL and at most 1 µg/mL, respectively. Further, the CC50 in series [1] (setting [4]) came to 4.7 µM.

On to `COc1c(N2CC[C@H](C(C)(C)N)C2)c(F)cc2c(=O)c3c(=O)[nH]sc3n(C3CC3)c12` [Compound 58, (S)-7-(3-(2-aminopropan-2-yl)pyrrolidin-1-yl)-9-cyclopropyl-6-fluoro-8-methoxyiso-thiazolo[5,4-b]quinoline-3,4(2H,9H)-dione], for which the MIC with MRSA strain ATCC 700699 (setting [5]) was 1.5 µg/mL (≈ 3.47 µM); with S. aureus ATCC 29213 it was at most 1 µg/mL; in the series with E. coli ATCC 25922, at most 1 µg/mL. Moreover, the CC50 in series [1] (setting [2]) came out at 61 µM.

Take `CC(C)(N)[C@@H]1CCN(c2cc3c(cc2F)c(=O)c2c(=O)[nH]sc2n3C2CC2)C1` [Compound 52, (R)-7-(3-(2-aminopropan-2-yl)pyrrolidin-1-yl)-9-cyclopropyl-6-fluoroisothia-zolo[5,4-b]quinoline-3,4(2H,9H)-dione, hydrochloride]: the MIC in the series with MRSA strain ATCC 700699 (read-out: MRSA MIC) is 0.38 µg/mL; in the series with MRSA strain ATCC 700699 (setting [6]), at most 1 µg/mL; with S. aureus ATCC 29213 it was at most 1 µg/mL; with E. coli ATCC 25922 it was at most 1 µg/mL. Moreover, the CC50 in series [1] (setting [4]) stood at 0.55 µM.

For the compound `NC[C@H]1CCN(c2cc3c(cc2F)c(=O)c2c(=O)[nH]sc2n3C2CC2)C1` [Compound 68, (R)-7-(3-(aminomethyl)-pyrrolidin-1-yl)-9-cyclopropyl-6-fluoroiso-thiazolo[5,4-b]quinoline-3,4(2H,9H)-dione], the MIC is 1 µg/mL (≈ 2.67 µM) with MRSA strain ATCC 700699 (setting [3]), at most 1 µg/mL in the series on S. aureus ATCC 29213 and at most 1 µg/mL in the series with E. coli ATCC 25922. Besides, the CC50 in series [1] (setting [4]) stood at 2.3 µM.

For `COc1c(N2CC[C@H](CN)C2)c(F)cc2c(=O)c3c(=O)[nH]sc3n(C3CC3)c12` [Compound 67, (R)-7-(3-(aminomethyl)-pyrrolidin-1-yl)-9-cyclopropyl-6-fluoro-8-methoxyiso-thiazolo[5,4-b]quinoline-3,4(2H,9H)-dione], the MIC in the series on MRSA strain ATCC 700699 (setting [5]) is 0.25 µg/mL (≈ 0.618 µM); in the series with MRSA strain ATCC 700699 (setting [6]) it was at most 1 µg/mL; with S. aureus ATCC 29213, at most 1 µg/mL; in the series with E. coli ATCC 25922 it was at most 1 µg/mL. Moreover, the CC50 in series [1] (setting [2]) worked out at 11 µM.

Consider `COc1c(N2CC[C@@H](C(C)(C)N)C2)c(F)cc2c(=O)c3c(=O)[nH]sc3n(C3CC3)c12` [Compound 53, (R)-7-(3-(2-aminopropan-2-yl)pyrrolidin-1-yl)-9-cyclopropyl-6-fluoro-8-methoxyiso-thiazolo[5,4-b]quinoline-3,4(2H,9H)-dione], for which the MIC with MRSA strain ATCC 700699 (setting [5]) was 0.1 µg/mL (≈ 0.231 µM); in the series on MRSA strain ATCC 700699 (setting [6]), at most 1 µg/mL; in the series on S. aureus ATCC 29213, at most 1 µg/mL; with E. coli ATCC 25922, at most 1 µg/mL. Further, in series [1] (setting [2]), the CC50 is 8.5 µM.

For the compound `CN(C)C1CCN(c2cc3c(cc2F)c(=O)c2c(=O)[nH]sc2n3C2CC2)C1` (stereo not drawn) [Compound 114, 9-cyclo-propyl-7-(3-(dimethyl-amino)pyrrolidin-1-yl)-6-fluoroiso-thiazolo[5,4-b]quinoline-3,4(2H,9H)-dione], the MIC with MRSA strain ATCC 700699 (setting [3]) amounted to 2 µg/mL (≈ 5.15 µM). For the same compound, in series [1] (setting [4]), the CC50 is 3 µM.

Regarding `CNC(C)(C)[C@@H]1CCN(c2c(F)cc3c(=O)c4c(=O)[nH]sc4n(C4CC4)c3c2OC)C1` [Compound 76, (R)-9-cyclo-propyl-6-fluoro-8-methoxy-7-(3-(2-(methyl-amino)propan-2-yl)pyrrolidin-1-yl)isothia-zolo[5,4-b]quinoline-3,4(2H,9H)-dione], the MIC in the series on MRSA strain ATCC 700699 (setting [5]) was 0.13 µg/mL (≈ 0.291 µM); with MRSA strain ATCC 700699 (setting [6]), at most 1 µg/mL; in the series with S. aureus ATCC 29213, at most 1 µg/mL; with E. coli ATCC 25922 it was at most 1 µg/mL. Besides, the CC50 in series [1] (setting [2]) was determined as 27 µM.

Consider `COc1c(N2CCC(C(C)(C)N)C2)c(F)cc2c(=O)c3c(=O)[nH]sc3n(C3CC3)c12` (stereo not drawn) [Compound 57, 7-(3-(2-aminopropan-2-yl)pyrrolidin-1-yl)-9-cyclopropyl-6-fluoro-8-methoxyiso-thiazolo[5,4-b]quinoline-3,4(2H,9H)-dione], for which the MIC in the series on MRSA strain ATCC 700699 (setting [6]), with S. aureus ATCC 29213 and in the series with E. coli ATCC 25922 was at most 1 µg/mL each time.

For the compound `CC(C)(N)[C@H]1CCN(c2cc3c(cc2F)c(=O)c2c(=O)[nH]sc2n3C2CC2)C1` [Compound 61, (S)-7-(3-(2-aminopropan-2-yl)pyrrolidin-1-yl)-9-cyclopropyl-6-fluoroiso-thiazolo[5,4-b]quinoline-3,4(2H,9H)-dione], the MIC was 16 µg/mL (≈ 39.8 µM) in the series on MRSA strain ATCC 700699 (setting [3]) and at most 1 µg/mL in the series with S. aureus ATCC 29213. The half-maximal cytotoxic concentration (CC50) in series [1] (setting [4]) is 6.1 µM.

On to `COc1c(N(C)C)c(F)cc2c(=O)c3c(=O)[nH]sc3n(C3CC3)c12` [Compound 42, 9-cyclopropyl-7-(dimethyl-amino)-6-fluoro-8-methoxyiso-thiazolo[5,4-b]quinoline-3,4(2H,9H)-dione], for which the MIC in the series on MRSA strain ATCC 700699 (setting [6]), with S. aureus ATCC 29213 and with E. coli ATCC 25922 was at most 1 µg/mL each time.
